{
  "source": "paper PMC7083851",
  "about": "“Extended pharmacodynamic responses observed upon PROTAC-mediated degradation of RIPK2” (Communications Biology, 2020)",
  "key": {"[1]": {"test": "Blood concentrations after subcutaneous dosing in rat PK/PD studies", "format": "in vivo", "settings": "rat, […] Q3D SC", "experimental": "Female CD rats (7–8 weeks old on arrival, Charles River Ltd.) were placed into groups using a randomization schedule based on body weight prior to the study start. All animals were acclimatized for a minimum of one week prior to the experiment commencing. […] PROTAC 4 was dissolved in saline with the pH adjusted to 5.0 with sodium hydroxide (1 M)."}, "[2]": {"tested_on": "L18-MDP-induced TNFα release", "test": "L18-MDP-induced cytokine release (TNFα, IL1β, IL-6, IL-8, IL-10) in human PBMCs", "format": "cell-based", "settings": "Homo sapiens, PBMC", "experimental": "PBMCs were isolated from leukodepletion filter from platelet aphaeresis supplied by National Health System Blood and Transplant—NHSBT Apheresed at NHBST.\nBefore treatment with compound or vehicle, THP1 cells, human and rat PBMCs were counted using Vi-Cell cell counter (Invitrogen) and adjusted to a final cell density of […] using complete growth medium. Cells or whole blood were treated with vehicle (0.1% DMSO) or fixed concentrations of compound up to 1 μM in half log unit increments and incubated for the time period indicated in the figure.\nWhere the assessment of cytokines was performed, L18-MDP was added to the cell culture media (1 μg/ml) or to the rat blood samples (100 ng/ml) and samples were incubated for up to 4 h. […] Samples were them spun down at 1000 g and the cell culture supernatant, plasma or serum were collected for cytokines assessment, while cell pellets were used for RIPK2 and/or cIAP1, cIAP2, and XIAP levels analysis via immunoblotting.\n(§1) Cytokine measurement assay: Cytokine levels were measured in rat plasma or rat PBMCs cell culture supernatants using rat V-Plex TNFα, in human plasma or human PBMCs cell culture supernatants with either TNFα tissue culture or 7-plex kit. Rat serum and tissues samples from the in vivo L18-MDP acute inflammation model were analyzed using the rat TNFα, Il-6 and IL-8 U-Plex kits. All kits provided by Meso Scale Discovery (MSD). Levels of cytokines spontaneously released from human colon biopsies cell culture supernatants were measured using Human IL-1 beta/IL-1F2 DuoSet ELISA (Bio-techne), Human IL-6 ELISA (Immunotools) and Human TNF-alpha DuoSet ELISA (Bio-techne). All samples were processed accordingly to the manufacturer’s instructions. The MSD plates were analyzed using the MSD sector imager 6000 plate reader and cytokines concentration (pg/ml) was obtained by using the MSD DISCOVERY WORKBENCH software version 4.0.12.1\nIn vitro experimental data were analyzed using a 4-parameter logistic equation in GraphPad Prism 5.0.4. to generate an estimate of the half-maximal concentration and maximal degradation, DC50 and Dmax value respectively, for concentration-degradation relationships. Cytokine levels were analyzed in a similar manner to yield IC50 and Imax values. […] Where analysis to a sigmoidal relationship was not possible, the data points are shown as mean ± s.e.m."}, "[3]": {"tested_on": "L18-MDP-stimulated TNFα release", "test": "TNFα after ex vivo L18-MDP stimulation of blood from dosed rats", "format": "in vivo, rat", "set-up": "key to TNFα after ex vivo L18-MDP stimulation: % of pre-dose or vehicle sample", "settings": "for TNFα after ex vivo L18-MDP stimulation: fig 5b; for TNFa: fig 5e, individual rats 6-10, time 0 = 100; for TNFα inhibition (ex vivo L18-MDP): 0.05 mg/kg/day QD SC", "experimental": "Male CD or Wistar Han rats (7–9 weeks old, Charles River UK Ltd.) were randomly allocated to treatment groups upon arrival. Female CD rats (7–8 weeks old on arrival, Charles River Ltd.) were placed into groups using a randomization schedule based on body weight prior to the study start. All animals were acclimatized for a minimum of one week prior to the experiment commencing.\nSubcutaneous PROTAC solution formulations were prepared on the day of dosing as outlined below and filtered through a 0.22 µm Millex PVDF filter (Millipore) prior to PROTAC administration. PROTAC 4 was dissolved in saline with the pH adjusted to 5.0 with sodium hydroxide (1 M).\nEx vivo stimulation of rat blood with L18-MDP for PD: PPD blood samples taken prior to PROTAC administration or at fixed timepoints post PROTAC administration through the course of the study, were treated ex vivo with 100 ng/mL L18-MDP (Invivogen) or vehicle (0.1% DMSO) and incubated for 4 h. Following centrifugation, plasma was collected for cytokines analysis as detailed in cytokines assay section. Additionally, RIPK2 levels were determined in PBMCs isolated from blood and where collected, in sampled colon tissue as described in the text.\nas §1\nStatistics and reproducibility: All data were represented as percentage of the control sample: DMSO treated cells for the in vitro assays and the pre-dose or vehicle sample for the in vivo experiments."}},
  "note": "Values joined by “and” are separate entries in the source; they are usually repeats but may differ in a detail not shown here. Identical values can stand only once. Like-named read-outs stand apart in the source and are kept apart here.",
  "data": [
    {"compound": "CN[C@@H](C)C(=O)N[C@H](C(=O)N1C[C@@H](NC(=O)c2cnc(N3CCN(CCCOc4cc5ncnc(Nc6n[nH]c(C)c6C)c5cc4S(=O)(=O)C(C)(C)C)CC3)cn2)C[C@H]1C(=O)Nc1c(F)cccc1F)C(C)(C)C", "note": "[PROTAC 6]", "values": [
      {"measurement": "time drug levels were maintained above the LLQ after the first dose", "setting": "[1]", "result": 24, "unit": "h"},
      {"measurement": "IC50", "setting": "[2]; 6 h, read-out: hPBMC MDP pIC50 ± SEM, 6 h (n = 3) (converted)", "result": 0.501, "unit": "nM"},
      {"measurement": "IC50", "setting": "[2]; read-out: pIC50 IL1β release following L18-MDP-stimulation (converted)", "result": "< 1.58", "unit": "nM"},
      {"measurement": "IC50", "setting": "[2]; read-out: pIC50 IL-6 release following L18-MDP-stimulation (converted)", "result": "< 1.58", "unit": "nM"},
      {"measurement": "IC50", "setting": "[2]; read-out: pIC50 IL-10 release following L18-MDP-stimulation (converted)", "result": "< 1.58", "unit": "nM"},
      {"measurement": "IC50", "setting": "[2]; read-out: pIC50 TNFα release following L18-MDP-stimulation (converted)", "result": "< 1.58", "unit": "nM"},
      {"measurement": "TNFα after ex vivo L18-MDP stimulation", "setting": "[3]; 0.005 mg/kg, time 6 h, rats 6-10", "result": "103.74 and 107.75 and 89.01 and 67.06 and 122.94"},
      {"measurement": "TNFα after ex vivo L18-MDP stimulation", "setting": "[3]; 0.005 mg/kg, time 96 h, rats 6-10", "result": "59.51 and 62.83 and 97.91 and 70.36 and 61.76"},
      {"measurement": "TNFα after ex vivo L18-MDP stimulation", "setting": "[3]; 0.05 mg/kg, time 48 h, rats 11-15", "result": "25.93 and 24.59 and 27.99 and 42.15 and 37.98"},
      {"measurement": "TNFa", "setting": "[3]; time 24 h", "result": "0.86 and 0.61 and 0.92 and 2.90 and 3.38"},
      {"measurement": "TNFa", "setting": "[3]; time 72 h", "result": "13.57 and 6.85 and 8.80 and 22.86"},
      {"measurement": "cumulative PD effect, in words", "setting": "[3]; rat, 0.05 mg/kg Q3D SC", "result": "failed to show this cumulative PD effect"},
      {"measurement": "TNFα inhibition (ex vivo L18-MDP)", "setting": "[3]; rat, 6 h post-dose", "result": "~ 60%"},
      {"measurement": "TNFα inhibition (ex vivo L18-MDP)", "setting": "[3]; rat, 24 h post-dose", "result": "~ 60%"},
      {"measurement": "TNFα inhibition (ex vivo L18-MDP)", "setting": "[3]; rat, 54 h (6 h after third dose)", "result": "> 90", "unit": "%"},
      {"measurement": "inhibition of TNFα release (ex vivo L18-MDP)", "setting": "[3]; rat, 0.5 mg/kg/day QD SC, 24 h", "result": "> 90", "unit": "%"},
      {"measurement": "effect on TNFα levels, in words", "setting": "[3]; rat, single 0.005 mg/kg SC", "result": "no significant effect"},
      {"measurement": "inhibition of TNFα release upon ex vivo L18-MDP challenge", "setting": "[3]; rat, single 0.05 mg/kg SC, first 48 h", "result": "> 60", "unit": "%"},
      {"measurement": "inhibition of TNFα levels upon ex vivo whole blood L18-MDP challenge", "setting": "[3]; rat, single 0.5 mg/kg SC, over the duration of the study (5 days)", "result": "> 70", "unit": "%"},
      {"measurement": "TNFa (time 0 = 100)", "setting": "[3]; time 72 h, rats 11-15, fig 5d", "result": "91.60 and 114.81 and 76.37 and 83.72"}
    ]}
  ]
}
